Target: T1, glucocerebrosidase (Homo sapiens, UniProt P04062)
T1 sequence (P04062 40-536): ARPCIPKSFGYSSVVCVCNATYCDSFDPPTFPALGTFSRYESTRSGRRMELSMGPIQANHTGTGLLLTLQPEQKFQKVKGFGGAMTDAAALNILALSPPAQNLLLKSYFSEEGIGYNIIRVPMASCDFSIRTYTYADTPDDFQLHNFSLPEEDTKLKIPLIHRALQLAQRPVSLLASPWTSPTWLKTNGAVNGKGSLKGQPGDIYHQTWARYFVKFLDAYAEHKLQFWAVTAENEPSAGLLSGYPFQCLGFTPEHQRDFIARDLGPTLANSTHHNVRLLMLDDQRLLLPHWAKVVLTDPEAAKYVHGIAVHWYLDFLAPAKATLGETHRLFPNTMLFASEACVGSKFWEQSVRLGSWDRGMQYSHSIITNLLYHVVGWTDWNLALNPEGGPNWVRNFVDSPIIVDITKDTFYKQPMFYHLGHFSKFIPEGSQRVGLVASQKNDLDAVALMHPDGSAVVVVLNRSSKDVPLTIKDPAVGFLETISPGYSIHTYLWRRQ
Test: Glucocerebrosidase activity assay with blue substrate (4MU-Glc)
Format: biochemical
Conditions: Table 2; additional compounds, tested as described in Example 2
Experimental: Example 2—Glucocerebrosidase Activity Assay with Blue Substrate
The compounds in DMSO solution 0.5 μL/well were transferred to a black 96-well plate (the final titration was 24 nM to 50 μM, 12 concentrations, 2× dilution). 33.5 μL enzyme solution (7.5 nM final concentration) was transferred to the wells. After 5 min of incubation at room temperature, the enzyme reaction was initiated by the addition of 33 μL/well blue substrate. Final concentration of the blue substrate (4MU-Glc) was 1.5 mM. The blue substrate reaction was terminated by the addition of 33 μL/well stop solution (1 M NaOH and 1 M glycine mixture, pH 10) after 30 min of incubation at 37° C. The fluorescence was then measured in the Biotek Synergy H1 multi-mode plate reader with Ex=365 nm and Em=440 nm.
Additional compounds were synthesized and tested for glucocerebrosidase modulatory activity as described in Example 1 and Example 2.

Row | Compound | AC50 [µM] | Emax [%]
1 | CCn1ncc2c(N(C)CCOc3ccc(CNC(=O)CCCCNC(=O)OC(C)(C)C)cc3)nc(-c3ccsc3)nc21 [Compound 149] | 0.4 | 157
2 | CCn1ncc2c(N3CC[C@H](Oc4ccccc4)C3)nc(-c3cccnc3)nc21 [Compound 156] | 39.8 | 220
3 | CCn1ncc2c(N3CC[C@H](Oc4ccccc4)C3)nc(-c3cncc(C(F)(F)F)c3)nc21 [Compound 158] | 39.8 | 163
4 | CCn1ncc2c(N3CC[C@@H](Oc4ccccc4)C3)nc(-c3cncc(C(F)(F)F)c3)nc21 [Compound 159] | 44.6 | 242
5 | CCn1ncc2c(N3CC[C@@H](Oc4ccccc4)C3)nc(-c3cncc(Cl)c3)nc21 [Compound 161] | 39.8 | 190
6 | CCn1ncc2c(N3CCC[C@H](Oc4ccccc4)C3)nc(-c3cccnc3)nc21 [Compound 163] | 25.1 | 475
7 | CN(CCOc1ccccc1)c1cc(Cl)nc(-c2cccnc2)n1 [Compound 168] | 4 | 360
8 | Cc1cc(-c2nc(N(C)CCOc3ccccc3)c3ccccc3n2)ccn1 [Compound 169] | 15.8 | 191
9 | CN(CCOc1ccccc1)c1cc(N2CC[C@@H](O)C2)nc(-c2cccnc2)n1 [Compound 171] | 5 | 280
10 | CN(CCOc1ccccc1)c1cc(C2CC[C@H](O)C2)nc(-c2cccnc2)n1 (stereo partly drawn) [Compound 172] | 8.9 | 525
11 | CN(CCOc1ccccc1)c1cc(N2CCC(CO)CC2)nc(-c2cccnc2)n1 [Compound 174] | 14.1 | 625
12 | CCCCCCCCCN(C)c1nc(-c2cccnc2)nc2ccccc12 [Compound 179] | 6.31 | 118
13 | CC(C)Cn1ncc2c(N(C)CCOc3ccccc3)nc(-c3cccnc3)nc21 [Compound 183] | 2.5 | 340

Second part, the compound after the results:

Row | AC50 [µM] | Emax [%] | Compound
14 | 4.47 | 450 | CN(CCOc1ccc2[nH]ccc2c1)c1nc(-c2cccnc2)nc2ccccc12 [Compound 147]
15 | 35 | 285 | c1cncc(-c2nc(N3CCc4cccnc4C3)c3ccccc3n2)c1 [Compound 148]
16 | 1.25 | 135 | CCN1Cc2nc(-c3cccnc3)nc(N(C)CCOc3ccccc3)c2C1 [Compound 150]
17 | 2.5 | 305 | CN(CCOc1ccccc1)c1nc(-c2cccnc2)nc2c1cnn2-c1ccccc1 [Compound 151]
18 | 2 | 425 | CN(CCOc1ccccc1)c1nc(-c2cccnc2)nc2c1cnn2Cc1ccccc1 [Compound 152]
19 | 1.58 | 178 | CN(CCOc1ccccc1)c1nc(-c2cccnc2)nc2c1oc1ccccc12 [Compound 153]
20 | 4.47 | 190 | c1ccc(O[C@H]2CCN(c3nc(-c4cccnc4)nc4ccccc34)C2)cc1 [Compound 154]
21 | 1.78 | 260 | c1ccc(O[C@@H]2CCN(c3nc(-c4cccnc4)nc4ccccc34)C2)cc1 [Compound 155]
22 | 22.4 | 580 | CCn1ncc2c(N3CC[C@@H](Oc4ccccc4)C3)nc(-c3cccnc3)nc21 [Compound 157]
23 | 28.2 | 130 | CCn1ncc2c(N3CC[C@H](Oc4ccccc4)C3)nc(-c3cncc(Cl)c3)nc21 [Compound 160]
24 | 28.2 | 425 | CCn1ncc2c(N3CCC[C@@H](Oc4ccccc4)C3)nc(-c3cccnc3)nc21 [Compound 164]
25 | 3.98 | 305 | c1ccc(OC2CN(c3nc(-c4cccnc4)nc4ccccc34)C2)cc1 [Compound 165]
26 | 6.31 | 276 | c1ccc(OC2CCN(c3nc(-c4cccnc4)nc4ccccc34)CC2)cc1 [Compound 166]
27 | 28.2 | 250 | CN(CCOc1ccccc1)c1cc(N2CCC(O)CC2)nc(Cl)n1 [Compound 167]
28 | 28.2 | 740 | CN(CCOc1ccccc1)c1cc(N2CCC(O)CC2)nc(-c2cccnc2)n1 [Compound 170]
29 | 2.5 | 260 | CN(CCOc1ccccc1)c1cc(N2CC(O)C2)nc(-c2cccnc2)n1 [Compound 173]
30 | 5.01 | 225 | CN(CCOc1ccccc1)c1nc(-c2cccnc2)nc2cccnc12 [Compound 182]
31 | 2.82 | – | CCn1ncc2c(N(C)CCOc3ccc(CNC(=O)CCCCCNC(=O)CCOCCOCCOCCOCCNC(=O)OC(C)(C)C)cc3)nc(-c3cccnc3)nc21 [Compound 184]
32 | 0.8 | 325 | CCCn1ncc2c(N(C)CCOc3ccccc3)nc(-c3cccnc3)nc21 [Compound 187]
